The values below come from PubChem BioAssay (NCI).

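Dose response: 5 concentrations. Exposure: 48 h. Format: 96-well plates. Endpoint: linear interpolation; highest concentration if not reached. Abbreviation: GI50, concentration required for 50% inhibition of growth. Definition used: TGI = concentration required for complete inhibition of growth.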 Some results are limits rather than exact numbers.

Some test systems named below: HCT-15 colon; SN12C renal; MDA-MB-435; A549 NSCLC; HCC-2998 colon; NCI-H522 lung; SK-MEL-2 melanoma; HOP-62 NSCLC; MALME-3M melanoma; U251 CNS.
Holding throughout (assay): NCI-60 cell line screen, 48 h

For `CC(C)(O)CCc1cccc(C(=O)c2cnn(-c3ccc(F)cc3)c2N)c1`, the GI50 in the test on HCT-15 colon, in the test on SN12C renal, in the test on MDA-MB-435, in the test with A549 NSCLC, in the test with HCC-2998 colon and with NCI-H522 lung was > 25 µM each time. For the same molecule, the GI50 in the test on SK-MEL-2 melanoma, with HOP-62 NSCLC, in the test on MALME-3M melanoma and with U251 CNS was > 25 µM each time. Also, the TGI with HCT-15 colon, in the test with SN12C renal, in the test with MDA-MB-435, in the test with A549 NSCLC, in the test with HCC-2998 colon and in the test on NCI-H522 lung was > 25 µM throughout. Also, the TGI with SK-MEL-2 melanoma, in the test with HOP-62 NSCLC, in the test on MALME-3M melanoma and with U251 CNS was > 25 µM in each case.
Turning to `CNCC(=O)NC(CO)C(=O)NC(CO)C(=O)NC1C(C(N)=O)OC(n2ccc(N)nc2=O)C(O)C1O` (stereo not given), the GI50 with HCT-15 colon is 15.8 µg/mL; with SN12C renal it was 9.89 µg/mL; in the test with MDA-MB-435 it was 41.9 µg/mL; in the test on A549 NSCLC, 17 µg/mL; in the test with HCC-2998 colon, 20.6 µg/mL; with NCI-H522 lung it was 1.85 µg/mL. For the same molecule, the GI50 was 4.58 µg/mL with SK-MEL-2 melanoma, 6.44 µg/mL in the test on HOP-62 NSCLC, 0.225 µg/mL with MALME-3M melanoma and 10.9 µg/mL in the test with U251 CNS. Besides, the TGI in the test on HCT-15 colon is > 50 µg/mL; in the test with SN12C renal, > 50 µg/mL; in the test with MDA-MB-435 it was > 50 µg/mL; with A549 NSCLC, > 50 µg/mL; in the test on HCC-2998 colon, > 50 µg/mL; in the test on NCI-H522 lung it was 8.98 µg/mL. Also, the TGI was 23.7 µg/mL with SK-MEL-2 melanoma, 32.3 µg/mL in the test with HOP-62 NSCLC, 7.58 µg/mL with MALME-3M melanoma and > 50 µg/mL in the test on U251 CNS.
As to `CC1=CC(C)(C)Nc2ccc(Cc3ccc4c(c3)C(C)=CC(C)(C)N4)cc21`, the GI50 is 13.8 µM in the test on HCT-15 colon; 11.2 µM in the test with SN12C renal; 16.5 µM in the test on MDA-MB-435; 12.2 µM in the test with A549 NSCLC; 20.6 µM in the test with HCC-2998 colon; 3.56 µM in the test on NCI-H522 lung. For the same molecule, the GI50 with SK-MEL-2 melanoma was 12.5 µM; in the test on HOP-62 NSCLC, 21.3 µM; in the test with MALME-3M melanoma, 11.8 µM; with U251 CNS, 3.96 µM. The TGI was 72.6 µM with HCT-15 colon; > 100 µM with SN12C renal; > 100 µM in the test on MDA-MB-435; > 100 µM in the test with A549 NSCLC; > 100 µM with HCC-2998 colon; 16.1 µM in the test on NCI-H522 lung. In addition, the TGI with SK-MEL-2 melanoma is 40.6 µM; with HOP-62 NSCLC, > 100 µM; with MALME-3M melanoma, 42 µM; in the test on U251 CNS, > 100 µM.
Regarding `Cc1nn(Cc2ccccc2)cc1C(=O)Nc1sc2c(c1C(N)=O)CCC(=O)C2`, the GI50 is 1.63 µM in the test with HCT-15 colon; 2.61 µM in the test with SN12C renal; 1.98 µM with MDA-MB-435; 4.39 µM in the test with A549 NSCLC; 2.56 µM in the test with HCC-2998 colon; 1.25 µM in the test on NCI-H522 lung. Also, the GI50 was 2.12 µM with SK-MEL-2 melanoma, 2.45 µM in the test on HOP-62 NSCLC, 1.89 µM in the test on MALME-3M melanoma and 2.62 µM in the test with U251 CNS. The TGI is 3.72 µM in the test on HCT-15 colon; 7.74 µM in the test with SN12C renal; 4.45 µM in the test on MDA-MB-435; > 100 µM in the test on A549 NSCLC; 7.41 µM in the test on HCC-2998 colon; 5.25 µM in the test on NCI-H522 lung. Also, the TGI with SK-MEL-2 melanoma was 5.2 µM; in the test on HOP-62 NSCLC it was > 100 µM; with MALME-3M melanoma, 3.79 µM; in the test with U251 CNS, > 100 µM.
As for `C=CCC(N[C@H](CO)c1ccccc1)c1ccccn1` (stereo not given in full), the GI50 in the test on HCT-15 colon, in the test on SN12C renal, in the test with MDA-MB-435, in the test with A549 NSCLC, in the test on HCC-2998 colon and in the test with NCI-H522 lung was > 100 µM in each case. Further, the GI50 with SK-MEL-2 melanoma, with HOP-62 NSCLC, in the test with MALME-3M melanoma and in the test with U251 CNS was > 100 µM throughout. In addition, the TGI in the test with HCT-15 colon, in the test with SN12C renal, with MDA-MB-435, in the test on A549 NSCLC, with HCC-2998 colon and with NCI-H522 lung was > 100 µM in each case. Moreover, the TGI in the test on SK-MEL-2 melanoma, with HOP-62 NSCLC, with MALME-3M melanoma and in the test with U251 CNS was > 100 µM in each case.
Turning to `O=C1C(Cl)=C(Cl)C(=O)N1c1ccc(F)cc1`, the TGI in the test with HCT-15 colon is 34 µM; with SN12C renal, 34.9 µM; in the test on MDA-MB-435, 34.9 µM; with A549 NSCLC, > 100 µM; in the test with HCC-2998 colon, 48.1 µM; in the test on NCI-H522 lung, 5.95 µM. The TGI in the test with SK-MEL-2 melanoma was > 72.8 µM; in the test on HOP-62 NSCLC it was 98.7 µM; with MALME-3M melanoma it was 32.5 µM; with U251 CNS, 53.2 µM.
